Measured values from US6784137B2, “6-aryl-4-aminopicolinates and their use as herbicides” (Dow AgroSciences LLC, priority 2001, dated 2004).
Read-outs that look alike come from different tables or passages of the source.

Experiments:
[1] = system: Cocklebur (Xanthium strumarium); assay: Postemergence herbicidal activity, greenhouse spray; format: in vivo; conditions: Xanthium strumarium, post-emergence, 336 h, visual score after 2 weeks, read-out: Post-emergent % control XANST; for pest or weed control at 500 ppm: rate 500 ppm, 0 no injury, 100 complete kill; for pest or weed control at 125 ppm: rate 125 ppm; for pest or weed control at 250 ppm: rate 250 ppm
Method: (§1) When required to ensure good germination and healthy plants, a fungicide treatment and/or other chemical or physical treatment was applied. The plants were grown for 7-21 days in a greenhouse with an approximate 15 hr photoperiod which was maintained at about 23-29° C. during the day and 22-28° C. during the night. Nutrients and water were added on a regular basis and supplemental lighting was provided with overhead metal halide 1000-Watt lamps as necessary. The plants were employed for testing when they reached the first or second true leaf stage. A weighed amount, determined by the highest rate to be tested, of each test compound was placed in a 20 mL glass vial and was dissolved in 4 mL of a 97:3 v/v (volume/volume) mixture of acetone and dimethyl sulfoxide (DMSO) to obtain concentrated stock solutions. […] The concentrated stock solutions obtained were diluted with an aqueous mixture containing acetone, water, isopropyl alcohol, DMSO, At plus 411 F crop oil concentrate, and Triton X-155 surfactant in a 48.5:39:10:1.5:1.0:0.02 v/v ratio to obtain spray solutions of known concentration. The solutions containing the highest concentration to be tested were prepared by diluting 2 mL aliquots of the stock solution with 13 mL of the mixture and lower concentrations were prepared by serial dilution of the stock solution. Approximately 1.5 mL aliquots of each solution of known concentration were sprayed evenly onto each of the test plant pots using a DeVilbiss atomizer driven by compressed air pressure of 2 to 4 psi (140 to 280 kiloPascals) to obtain thorough coverage of each plant. Control plants were sprayed in the same manner with the aqueous mixture. […] The treated plants and control plants were placed in a greenhouse as described above and watered by sub-irrigation to prevent wash-off of the test compounds.

[2] = system: Barnyardgrass (Echinochloa crus-galli); assay: as above; format: in vivo; conditions: Echinochloa crus-galli, post-emergence, 336 h, visual score after 2 weeks, read-out: Post-emergent % control ECHCG; for pest or weed control at 500 ppm: rate 500 ppm; for pest or weed control at 125 ppm: rate 125 ppm; for pest or weed control at 250 ppm: rate 250 ppm
Method: as §1

[3] = system: Lambsquarter (Chenopodium album); assay: as above; format: in vivo; conditions: Chenopodium album, post-emergence, 336 h, visual score after 2 weeks, read-out: Post-emergent % control CHEAL; for pest or weed control at 500 ppm: rate 500 ppm; for pest or weed control at 125 ppm: rate 125 ppm; for pest or weed control at 250 ppm: rate 250 ppm
Method: as §1

[4] = system: Yellow nutsedge (Cyperus esculentus); assay: as above; format: in vivo; conditions: Cyperus, post-emergence, 336 h, visual score after 2 weeks, read-out: Post-emergent % control CYPES; for pest or weed control at 500 ppm: rate 500 ppm; for pest or weed control at 125 ppm: rate 125 ppm; for pest or weed control at 250 ppm: rate 250 ppm
Method: as §1

[5] = system: Pigweed (redroot) (Amaranthus retroflexus); assay: Preemergence herbicidal activity, soil spray; format: in vivo; conditions: Amaranthus retroflexus, pre-emergence, 504 h, Table 5, visual score after 3 weeks, read-out: Pre-emergent % control AMARE
Description: (§2) Seeds of the desired test plant species were planted in a soil matrix prepared by mixing a loam soil (43 percent silt, 19 percent clay, and 38 percent sand, with a pH of about 8.1 and an organic matter content of about 1.5 percent) and sand in a 70 to 30 ratio. The soil matrix was contained in plastic pots with a surface area of 113 square centimeters. When required to ensure good germination and healthy plants, a fungicide treatment and/or other chemical or physical treatment was applied. A weighed amount, determined by the highest rate to be tested, of each test compound was placed in a 20 mL glass vial and was dissolved in 4 mL of a 97:3 v/v (volume/volume) mixture of acetone and dimethyl sulfoxide to obtain concentrated stock solutions. […] The stock solutions obtained were diluted with a 99.9:0.1 mixture of water and Tween® 155 surfactant to obtain application solutions of known concentration. The solutions containing the highest concentration to be tested were prepared by diluting 2 mL aliquots of the stock solution with 15 mL of the mixture and lower concentrations were prepared by serial dilution of the stock solution. A 2.5 mL aliquot of each solution of known concentration was sprayed evenly onto the soil surface (113 sq. cm) of each seeded pot using a Cornwall 5.0 mL glass syringe fitted with a TeeJet TN-3 hollow cone nozzle to obtain thorough coverage of the soil in each pot. Control pots were sprayed in the same manner with the aqueous mixture. The treated pots and control pots were placed in a greenhouse maintained with an approximate 15 hr photoperiod and temperatures of about 23-29° C. during the day and 22-28° C. during the night. Nutrients and water were added on a regular basis and supplemental lighting was provided with overhead metal halide 1000-Watt lamps as necessary. The water was added by top-irrigation.

[6] = system: Crabgrass(large) (Digitaria sanguinalis); assay: Preemergence herbicidal activity, soil spray; format: in vivo; conditions: Digitaria sanguinalis, pre-emergence, 504 h, Table 5, visual score after 3 weeks, read-out: Pre-emergent % control DIGSA
Description: as §2

[7] = system: Giant Foxtail (Setaria faberi); assay: Preemergence herbicidal activity, soil spray; format: in vivo; conditions: Setaria faberi, pre-emergence, 504 h, Table 5, visual score after 3 weeks, read-out: Pre-emergent % control SETFA
Description: as §2

[8] = system: Lambsquarter (Chenopodium album); assay: Preemergence herbicidal activity, soil spray; format: in vivo; conditions: Chenopodium album, pre-emergence, 504 h; Table 5; rate 560 ppm; visual score after 3 weeks, 100 complete kill or no germination; read-out: Pre-emergent % control CHEAL
Description: as §2

Compound	pest or weed control at 500 ppm ([1]; Table 1)	pest or weed control at 500 ppm ([2]; Table 1)	pest or weed control at 500 ppm ([3]; Table 1)	pest or weed control at 500 ppm ([4]; Table 1)	melting point	pest or weed control at 125 ppm ([1]; Table 1)	pest or weed control at 125 ppm ([2]; Table 1)	pest or weed control at 125 ppm ([3]; Table 1)	pest or weed control at 125 ppm ([4]; Table 1)	pest or weed control at 250 ppm ([1]; Table 1)	pest or weed control at 250 ppm ([2]; Table 1)	pest or weed control at 250 ppm ([3]; Table 1)	pest or weed control at 250 ppm ([4]; Table 1)	also measured
Nc1c(F)c(C(=O)O)nc(-c2ccc(Cl)cc2F)c1F [Compound 206, 4-Amino-3,5-difluoro-6-(4-chloro-2-fluorophenyl)pyridine-2-carboxylic acid]	99%	85%	95%	70%	155 to 156 °C									
Nc1cc(-c2ccc(Cl)s2)nc(C(=O)O)c1Cl [Compound 215, 4-Amino-3-chloro-6-(5-chloro-2-thienyl)pyridine-2-carboxylic acid]					178 to 179 °C	100%	70%	100%	70%					
Nc1cc(-c2ccc(Cl)nc2)nc(C(=O)O)c1Cl [Compound 225, 4-Amino-3-chloro-6-(6-chloro-3-pyridinyl)pyridine-2-carboxylic acid]					110 to 114 °C	90%	40%	70%	60%					
COC(=O)c1nc(-c2ccc3c(c2)CCO3)c(F)c(N)c1Cl [Compound 85, Methyl 4-amino-3-chloro-5-fluoro-6-(2,3-dihydro-5-benzofuranyl)pyridine-2-carboxylate]					120 °C					100%	99%	100%	70%	
Nc1c(F)c(C(=O)O)nc(-c2ccc3c(c2)OCO3)c1F [Compound 207, 4-Amino-3,5-difluoro-6-(3,4-methylenedioxyphenyl)pyridine-2-carboxylic acid]					174 to 175 °C	90%	70%	70%	40%					pest or weed control at 140 ppm ([5]; rate 140 ppm): 100%; pest or weed control at 140 ppm ([6]; rate 140 ppm): 95%; pest or weed control at 140 ppm ([7]; rate 140 ppm): 50%
Nc1cc(-c2ccc(F)cc2Cl)nc(C(=O)O)c1Cl [Compound 170, 4-Amino-3-chloro-6-(2-chloro-4-fluorophenyl)pyridine-2-carboxylic acid]	100%	80%	100%	70%	156 to 157 °C									
COC(=O)c1nc(-c2ccc3ccccc3c2)cc(N)c1Cl [Compound 47, Methyl 4-amino-3-chloro-6-(2-naphthyl)pyridine-2-carboxylate]	90%	80%	90%	0%	108 to 109 °C									
CCc1ccc(-c2cc(N)c(Cl)c(C(=O)OC)n2)cc1 [Compound 30, Methyl 4-amino-3-chloro-6-(4-ethylphenyl)pyridine-2-carboxylate]					119 °C									pest or weed control at 560 ppm ([5]; rate 560 ppm): 100%; pest or weed control at 560 ppm [8]: 90%; pest or weed control at 560 ppm ([6]; rate 560 ppm): 100%; pest or weed control at 560 ppm ([7]; rate 560 ppm): 70%
COC(=O)c1nc(-c2ccc(C(F)(F)F)cc2)c(Cl)c(N)c1Cl [Compound 44, Methyl 4-amino-3,5-dichloro-6-[4-(trifluoromethyl)phenyl]pyridine-2-carboxylate]					110 to 111 °C					100%	30%	80%	70%	
Nc1c(F)c(-c2ccc(Cl)cc2Cl)nc(C(=O)O)c1Cl [Compound 199, 4-Amino-3-chloro-5-fluoro-6-(2,4-dichlorophenyl)pyridine-2-carboxylic acid]					152 °C					100%	85%	100%	95%	pest or weed control at 125 ppm ([1]; Table 2): 100%; pest or weed control at 125 ppm ([2]; Table 2): 80%; pest or weed control at 125 ppm ([3]; Table 2): 100%; pest or weed control at 125 ppm ([4]; Table 2): 90%
COC(=O)c1nc(-c2ccc(Cl)cn2)cc(N)c1Cl [Compound 111, Methyl 4-amino-3-chloro-6-(5-chloro-2-pyridyl)pyridine-2-carboxylate]					145 to 150 °C					100%	70%	100%	80%	
COC(=O)c1nc(-c2ccc(C(F)(F)F)cc2)c(F)c(N)c1F [Compound 94, Methyl 4-amino-3,5-difluoro-6-[4-(trifluoromethyl)phenyl]pyridine-2-carboxylate]	100%	90%	100%	90%	177 to 178 °C									
COC(=O)c1nc(-c2ccc3c(c2)OCO3)c(F)c(N)c1F [Compound 95, Methyl 4-amino-3,5-difluoro-6-(3,4-methylenedioxyphenyl)pyridine-2-carboxylate]					189 to 190 °C	80%	70%	90%	60%					
